“Also recorded” adds a separate entry of the source. Each block holds one molecule with its values, some of them ahead of it.
Columns and labels:
[1] = In situ transcardiac brain perfusion: brain/perfusate ratio at 1 min in 2-, 8-, 12- and 24-month-old mice; format: in vivo, C57BL/6J mice; settings: for decrease of [14C]DHA brain/perfusate ratio: 1 min perfusion at 2 mL/min
Description: (§1) Brain uptake of DHA was assessed in mice using an in situ transcardiac brain perfusion technique. […] The [1-^14C]DHA as NE-DHA (American Radiolabeled Chemicals, St. Louis, MO, USA; ARC0380), [^3H]mannitol (PerkinElmer, Waltham, MA, USA, NET101) and [^14C]sucrose (PerkinElmer, Waltham, MA, USA; NEC100X) were diluted to concentrations of 0.1 μCi/mL (DHA and sucrose) and 0.2 μCi/mL (mannitol) in a physiological buffer containing 141 mM NaCl (Sigma, St. Louis, MO, USA; 28–2270–5), 4 mM KCl (Wako, Osaka, Japan; 163–03545), 2.8 mM CaCl2 (Sigma; 05–0580), 1 mM MgSO4·7H2O (Kishida Chemical Co., Ltd., Osaka, Japan; 000–46905), 1 mM NaH2PO4·2H2O (Wako; 192–02815), 10 mM d-glucose (Wako; 041–00595), and 10 mM 4-(2-hydroxyethyl)-1-piperazineethanesulfonic acid (HEPES; Sigma; H4034); pH 7.4. In a competition assay, unlabeled NE-DHA (Sigma; D2534-100MG) was added to the perfusate (final concentration of unlabeled DHA: 100 μM) before infusion. Ethanol (Nacalai Tesque, Kyoto, Japan; 14713–95) was added to an equal volume of unlabeled DHA to the perfusate (final ethanol concentration: 0.001%) as the vehicle control.
(§2) Mice were anesthetized using an intraperitoneal injection of 25% urethane (Sigma; 94300). The heart was exposed, the left jugular vein was severed, and the descending aorta was ligated. Perfusate containing [^14C]DHA, [^3H]mannitol, or [^14C]sucrose was then infused into the left ventricle of the heart at a rate of 2 mL/min for 0.5 to 1.5 min using a 27 gauge butterfly needle. In the uptake experiment for aged mice, the perfusate was infused for 1 min. After perfusion, the brain was removed, dissected into six regions (the olfactory bulb, forebrain, cortex, hippocampus, thalamus and hypothalamus, and cerebellum), and weighed. Each brain region was mixed with 1 mL of tissue solubilizer (Solvable™; PerkinElmer; 6NE9100) and incubated at 60°C for 24 h. Samples were prepared for scintillation counting by the addition of 0.2 mL H2O2 (Sigma; 13-1910-5) and 10 mL of liquid scintillation cocktail (Pico-Fluor Plus; PerkinElmer; 6013699). The radioactivity in the samples was then measured using a liquid scintillation counter (Packard 2250CA; PerkinElmer). Brain/perfusate ratios were calculated by dividing the radioactivity in 1 g of brain tissue by the radioactivity in an mL of perfusate. Whole brain values were calculated by dividing the total radioactivity in each brain region by the total weight of each brain region. The unidirectional influx rate (Ki) was determined by the linear portion of the slope in the plot of brain/perfusate ratio against perfusion time.

[2] = system: rat brain endothelial cells (RBECs); experiment: Cellular uptake of [14C]DHA by primary rat brain endothelial cells; format: cell-based
Description: The method of primary culture of rat brain endothelial cells (RBECs) is previously described. The meninges and white matter were carefully removed from the forebrains, and the gray matter was minced using a scalpel and enzymatic digestion by DMEM (Wako; 048–29763), including collagenase type 2 (1 mg/mL, Worthington, Lakewood, NJ, USA; CLS2) for 75 min at 37°C with agitation in the water bath. After inactivation by adding cold DMEM, the suspension was centrifuged (1,000 × g, 8 min). The pellet was separated by centrifugation in 20% BSA, (Wako, 011–27055)—DMEM (1,000 × g, 20 min). The pellet containing microvessels were further digested with DMEM including collagenase/dispase (1 mg/mL, Roche, Mannheim, Germany; 11097113001) for 20 min at 37°C with agitation in the water bath. After inactivation, microvessel clusters were separated on a 33% continuous Percoll (GE Healthcare, Buckinghamshire, UK; 17-5445-01) gradient, collected and plated on collagen type IV (0.1 mg/mL, Sigma; C5533) and fibronectin (0.075 mg/mL, Sigma; F1141-5MG) coated dishes. RBEC cultures were maintained in RBEC medium [DMEM/F12 (Wako; 042–30555) supplemented with 10% FBS (Biosera, Kansas, MO, USA; FB-1365/500), basic fibroblast growth factor (1.5 ng/mL, R&D, Minneapolis, MN, USA; 2099-FB-025), heparin (100 μg/mL, Sigma; H3149), insulin (5 μg/mL), transferrin (5 μg/mL), sodium selenite (5 ng/mL; insulin-transferrin-sodium selenite media supplement, Sigma; I1884), penicillin (100 units/mL), streptomycin (100 μg/mL; penicillin-streptomycin mixed solution, Nacalai Tesque; 09367–34) and gentamicin (50 μg/mL, Biowest, Riverside, MO, USA; L0012)] containing puromycin (4 μg/mL, Nacalai Tesque; 14861–84) at 37°C in a humidified atmosphere of 5% CO2/95% air, for three days and typically reached 70–80% confluency. […]
To measure the cellular uptake of DHA, RBECs cultured on a 24-well plate were incubated with 0.2 mL of physiological buffer containing 0.1 μCi/mL [^14C]DHA (incubation buffer) at 37°C for 30 s to 15 min. […] The total protein concentration in the cell lysates was determined using a Pierce™ BCA Protein Assay Kit. Samples were added to 10 mL of a liquid scintillation cocktail, then [^14C]DHA radioactivity in the cell lysate was measured using a liquid scintillation counter. The cellular uptake of [^14C]DHA by RBECs was expressed as cell/medium ratios calculated by dividing the radioactivity in one milligram of protein by the radioactivity in one microliter of the incubation buffer. The rate of cellular uptake was determined by the linear portion of the slope of the cell/medium ratios against the incubation time (0.5, 2, 5, and 10 min) graph.

[3] = cited from earlier work
[4] = In situ transcardiac brain perfusion competition assay with excess unlabeled DHA: brain uptake rate (Ki) in 2-month-old mice
Description: as §1, §2
Results are expressed as the mean ± standard error of the mean (SEM). Statistical analyses were performed using GraphPad Prism 8.0 (GraphPad, San Diego, CA, USA). […]

[5] = system: bovine brain endothelial cells; parameters: method as in PMID: 9886086; settings: 2 h incubation; ref PMID: 9886086; cited from earlier work
[6] = parameters: method as in PMID 33054801; settings: ref PMID 33054801; cited from earlier work
[7] = capillary depletion after a 40 s in situ brain perfusion, ref PMID: 19442696
[8] = co-infusion of an excess amount of DHA

difference of [14C]DHA brain/perfusate ratio ([1]; forebrain, 2 vs. 12 months old): 0.04489 mL/g
difference of [14C]DHA brain/perfusate ratio ([1]; forebrain, 2 vs. 24 months old): 0.05294 mL/g
difference of [14C]DHA brain/perfusate ratio ([1]; hippocampus, 2 vs. 12 months old): 0.03402 mL/g
difference of [14C]DHA brain/perfusate ratio ([1]; hippocampus, 2 vs. 24 months old): 0.06034 mL/g
difference of [14C]DHA brain/perfusate ratio ([1]; olfactory bulb, 2 vs. 24 months old): 0.04626 mL/g
difference of [14C]DHA brain/perfusate ratio ([1]; thalamus and hypothalamus, 2 vs. 12 months old): 0.04306 mL/g
difference of [14C]DHA brain/perfusate ratio ([1]; thalamus and hypothalamus, 2 vs. 24 months old): 0.05106 mL/g
decrease of [14C]DHA brain/perfusate ratio ([1]; whole brain, 12-month-old vs 2-month-old mice): 0.03275 mL/g
decrease of [14C]DHA brain/perfusate ratio ([1]; whole brain, 24-month-old vs 2-month-old mice): 0.03827 mL/g
rate of cellular uptake of [14C]DHA by RBECs ([2]; 4°C): 19.98 μLmg protein^-1 min^-1
rate of cellular uptake of [14C]DHA by RBECs ([2]; 37°C): 50.13 μLmg protein^-1 min^-1
time at which cellular uptake of [14C]DHA by RBECs peaked ([2]; intact RBECs, 37°C): 10 min
perfusion time at which brain uptake of [14C]DHA plateaued ([4]; 2-month-old mice, perfusion at 2 mL/min): 1.5 min
Structure (SMILES): CC/C=C\C/C=C\C/C=C\C/C=C\C/C=C\C/C=C\CCC(=O)O [[^14C]DHA, Docosahexaenoic acid]
[14C]DHA detected in brain parenchymal fraction [3, 7]: more than 90%
[14C]DHA remaining in the endothelial cells of the brain vasculature [3, 7]: less than 10%
[14C]DHA remaining in endothelial cells of the brain vasculature ([3]; capillary depletion after brain perfusion, ref 12 (printed [40])): less than 10%

Structure (SMILES): CC/C=C\C/C=C\C/C=C\C/C=C\C/C=C\C/C=C\CCC(=O)O [unlabeled DHA, Docosahexaenoic acid]
effect on cellular uptake rate of [14C]DHA in rat brain endothelial cells ([2]; in the presence of unlabeled DHA, vs vehicle (Fig. F of response letter)): declined; also recorded: decreased
fate of non-esterified DHA taken up by brain endothelial cells [5]: mainly incorporated into phosphatidylcholine
inhibition at 100 µM ([4]; Mus musculus, read-out: extent of inhibition of the brain uptake rate of [14C]DHA): ~50%

effect of age on brain uptake of [3H]mannitol ([1]; each brain region, 2-, 8-, 12-, 24-month-old mice, 1 min): no significant effects with age
Kin for [3H]mannitol [4, 8]: not changed
brain/perfusate ratio of [3H]mannitol [4, 8]: increased
Structure (SMILES): OC[C@@H](O)[C@@H](O)[C@H](O)[C@H](O)CO [[^3H]mannitol, mannitol]
change in brain uptake (brain/perfusate ratio) of [3H]mannitol with age ([1]; whole brain, 2-, 8-, 12-, 24-month-old mice, 1 min): No significant changes; also recorded: no significant differences

Structure (SMILES): OC[C@@H](O)[C@@H](O)[C@H](O)[C@H](O)CO [mannitol]
brain concentrations and Kin compared with sucrose [6]: higher

From paper PMC9934487, “Aging decreases docosahexaenoic acid transport across the blood-brain barrier in C57BL/6J mice” (PLOS ONE, 2023)
